Reference: ChEMBL document CHEMBL4725243, “High-Throughput Screening for the Discovery of Enzyme Inhibitors” (J Med Chem, 2020)
pIC50: −log10 of the molar value.

How the values were obtained:
[1] = Inhibition of Mycobacterium tuberculosis kanamycin resistance enzyme Eis after 5 mins in presence of AcCoA by Ellman's reagent based assay
[2] = Inhibition of Mycobacterium tuberculosis kanamycin resistance enzyme Eis preincubated for 10 mins followed by AcCoA addition and measured after 5 mins at interval of 30 sec for 20 mins by UV-Vis assay

SMILES | pIC50 [1] | pIC50 [2]
Cc1ccc(C(=O)C[n+]2ccn3cccc3c2-c2ccc(F)cc2)cc1 | 7.10 | –
O=C(C[n+]1ccn2cccc2c1-c1ccccc1)c1ccccc1 | 7.19 | –
Cn1c2ccc(F)cc2c2nnc(SCCN3CCCCC3)nc21 | – | 7.52
